Consider one compound from paper PMC2577671, “Evaluation of Dimebon in cellular model of Huntington's disease” (Molecular Neurodegeneration, 2008).

The structures appear in SMILES notation.

For the data set, the target named is T1, CYP450, 3A4 (Homo sapiens, UniProt P08684).
T1 construct: gene CYP3A4
Briefly: in vitro. Further details: MDS Pharma Lead Profiling + CYP450 screen, enzyme assays, per cent inhibition, duplicate. How it is done:
The activity of Dimebon against selected set of biochemical targets was performed by MDS Pharma Services . The Dimebon was provided to MDS Pharma as dry powder, dissolved in DMSO and tested in 10 μM concentrations. The standard Lead Profiling + CYP450 screen was performed according to MDS Pharma specifications with additional custom-chosen targets added to the screen as indicated. To further understand potential mechanisms responsible for clinical effects of Dimebon, we evaluated Dimebon against a set of selected biochemical targets. Dimebon evaluation was performed by MDS Pharma Services . The standard Lead Profiling + CYP450 screen was performed with additional custom-selected targets added to the screen. The results of the screen obtained at 10 μM of Dimebon are provided as Additional File 3. […] Low affinity (50–60% inhibition) interactions were also observed for CYP450, 2C19 receptor, voltage-gated L-type Ca^2+ channel, Dopamine D4.2 receptor, and Serotonin 5-HT1 receptor. […] Supplementary file 1750-1326-3-15-S3.pdf: Additional file 3 The results of Dimebon screening against a selected set of biochemical targets. The complete results obtained by MDS Pharma with a selected list of biochemical targets using 10 μM of Dimebon as a probe. The Cat numbers refer to the MDS Pharma Services assay specification. The receptors and species are listed. Dimebon was tested at 10 μM concentratio in duplicate. The % inhibition by Dimebon is shown numerically and graphically for each receptor. Significant targets (defined as % inhibition > 50%) are highlighted in yellow. Click here for file

T1 sequence (P08684 whole entry): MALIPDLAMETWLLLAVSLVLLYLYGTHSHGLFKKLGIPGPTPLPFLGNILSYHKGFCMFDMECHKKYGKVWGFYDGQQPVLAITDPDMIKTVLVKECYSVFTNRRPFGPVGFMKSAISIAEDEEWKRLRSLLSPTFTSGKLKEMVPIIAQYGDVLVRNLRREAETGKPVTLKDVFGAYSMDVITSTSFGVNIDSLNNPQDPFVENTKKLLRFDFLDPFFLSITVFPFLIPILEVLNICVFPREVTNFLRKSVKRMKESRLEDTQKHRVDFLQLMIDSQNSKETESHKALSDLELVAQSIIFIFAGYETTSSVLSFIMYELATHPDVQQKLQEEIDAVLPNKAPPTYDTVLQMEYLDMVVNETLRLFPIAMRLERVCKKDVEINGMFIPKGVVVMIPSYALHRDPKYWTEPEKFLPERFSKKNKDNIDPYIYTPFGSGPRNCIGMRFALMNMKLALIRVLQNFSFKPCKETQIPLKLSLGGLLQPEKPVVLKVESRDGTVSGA

Broadly, the inhibition is the drop in the measured response relative to a control, in per cent. In the case of `Cc1ccc2c(c1)c1c(n2CCc2ccc(C)nc2)CCN(C)C1` [Dimebon, 2,3,4,5-Tetrahydro-2,8-dimethyl-5-(2-(6-methyl-3-pyridyl)ethyl)-1H-pyrido(4,3-b)indole], the inhibition at 10 µM was 22%.
